US20100278849A1, “PROSTATIC ACID PHOSPHATASE ANTIGENS” (priority 2004, published 2010)
“Also recorded” adds a separate entry of the source.

Experiments:
Type in all cases: cell-based
HLA-A2*0201 = HLA-A2*0201 (Homo sapiens, UniProt P04439, D140Y/D185E/D98H/E176V/E277Q/G131W/G231S/I119V/I121R/I166T/I218V/L300P/L318F/N151K/N90K/P208A/P217A/Q86G/Q94H/R138H/R169H/T345S); details: peptide at 100, 10 and 1 μM; compared with positive control influenza M1 peptide; three independent experiments
IFN-γ [1] = experiment: Cytokine production by splenocytes of immunised FVB/N-DR1 mice, ELISA
Protocol: (§1) After 6 days, the spleens from immunised animals were collected and the cells flushed out using T cell media (RPMI+10% FCS+20 mM HEPES buffer+50 μM 2-mercaptoethanol+50 U/ml penicillin/streptomycin+0.25 μg/ml fungizone). The remaining splenic tissue was digested using an enzyme cocktail (0.1 U/ml DNAase (Sigma)+1.6 mg/ml collagenase (Sigma)) for 1 hour at 37° C. The cell suspension obtained was pooled with the flushed cells, washed once, and the splenocytes were plated in 24 well plates with 10 μg/ml of peptide at a density of 2.5×10^6/ml for FVB/N-DR1 or 3.5×10^6/ml for C57BL/6-DR4. Cells were also cultured with an irrelevant peptide as a control. To measure cytokine production, culture supernatants were collected on day 2 and 5 of the culture for the measurement of cytokine by ELISA.
(§2) Aliquots of supernatants were removed from CTL cultures on days 1 and 5 and on days 2 and 5 from CD4′ T cell cultures and stored at −20° C. until required. ELISA was used to quantitate concentrations of murine IFN-γ and IL-5 (R&D systems, UK).

IFN-γ [2] = experiment: Cytokine production by splenocytes of immunised C57BL/6-DR4 mice, ELISA; details: relevant versus irrelevant peptide
Protocol: as §1, §2
We further investigated HLA-DR class-II restricted responses to PAP peptides that were predicted to bind to HLA-DR1 and HLA-DR4 according to the evidence-based computer assisted algorithm […]. The peptides displaying high binding scores for both HLA-DR alleles were selected and further studied (Table 1). C57BL/6-DR4 mice were immunised with these predicted HLA-DR-restricted PAP and the proliferative and IFN-γ response to peptide stimulation in vitro was monitored by proliferation assays and cytokine measurements. PAP. 64 and PAP.

HLA-DRβ1*0401 = experiment: Proliferation of splenocytes from immunised HLA-DR4 mice with peptide-pulsed BM-DC (tritiated thymidine); details: for effect of anti-HLA-DR antibody (L243) on proliferation: not blocked by isotype control; for proliferation of splenocytes from immunised HLA-DR4 mice: re-stimulated in vitro with peptide for 5 days; for number of HLA-DR4 mice whose splenocytes demonstrated specific proliferation: responding/total mice, after re-stimulation in vitro with relevant peptide
Protocol: (§3) HLA-A2.1/K^b mice were immunised with an emulsion consisting of 100 μg of the putative class-I peptide epitope and 100 μg of non-specific class-II peptide derived from hepatitis B virus in 50% incomplete Freund's adjuvant (IFA). HLA-DR4- and HLA-DR1-transgenic mice were immunised twice at one week interval with 100 μg of class-II peptide emulsified in 50% incomplete Freund's adjuvant (IFA) and 50% PBS. All vaccine were delivered as a 100 μl intradermal bolus inoculum at the base of the tail.
(§4) 0DC were generated using a method adapted from Inaba et al (Inaba et al. 1992). Briefly, femurs and tibias were harvested aseptically from non-immunised DR1 or DR4 transgenic mice and placed in sterile PBS supplemented with 50 IU/ml penicillin, 50 μg/ml streptomycin, and 0.25 μg/ml fungizone. The marrow was flushed out of the bone using BM-DC media (RPMI 1640 medium supplemented with 2 mM glutamine, 5% FCS, 10 mM Hepes, 501M 2-ME, 50 μg/ml penicillin, 50 μg/ml streptomycin, 0.25 μg/ml fungisone and 10% of supernatant collected from X-63 cells). The cells were washed once in BM-DC media and plated in 24-well plates at 10^6/well in 1 ml DC media and incubated at 37° C. in a 5% CO2 humidified atmosphere. On days 2 and 4, the non-adherent cells (T cells, B cells, granulocytes) were removed, and the remaining cells were cultured in fresh DC medium. After 7-9 days, clusters of loosely adherent DC were dislodged and collected by gently pipetting, before being washed and seeded in 24-well plates at 0.5×10^6 cells/well in 1 ml DC media. Peptides were added at 1 μg/well and the plates were incubated at 37° C. 1 μg/ml of LPS was added after 5 hours, and the plates were incubated overnight at 37° C. in a 5% CO2 in air-humidified atmosphere.
as §1
[…] CD8+ T cells were depleted from the cell suspension using anti-CD8+ antibody coupled with magnetic beads (Dynal, UK) as per the manufacturers instructions. Cells were then washed in PBS and resuspended at 5×10^5/ml in T cell medium. 100 μl of T cells was then added to all wells. Anti-DR antibody (L243) or isotype control were added to some wells to confirm the MHC specificity of the T-cell response. LPS-treated dendritic cells were harvested, washed and incubated in 1 ml of DC medium with the addition of 10 íg of peptide at 37° C. for 5 hours. After washing, 10^3 peptide-pulsed DC were added to the relevant wells of lymphocyte cultures in 50 íl media. These plates were then incubated for 3 days at 37° C. in a 5% CO2 in air-humidified atmosphere. Tritriated thymidine was then added to the culture and incubated again for 18 hours. Plates were harvested onto 96 Uni/Filter (Packard), the scintillation liquid (Microscint 0, Packard) was added and the plates were counted on a Top-Count counter (Packard). Results are expressed in counts per minute (cpm) and as a means of the triplicate wells. Statistical analysis was performed using unpaired Student's t test. […]

HLA-DRβ1*0101 = experiment: Proliferation of splenocytes from immunised HLA-DR1 mice with peptide-pulsed BM-DC (tritiated thymidine); details: for proliferative response of splenocytes from HLA-DR1 mice: FVB/N-DR1 / HLA-DRβ1*0101 transgenic mice; for number of HLA-DR1 mice whose splenocytes demonstrated specific proliferation: responding/total mice, after re-stimulation in vitro with relevant peptide
Protocol: as §3, §4, §1
Splenocytes from immunised animals cultured for 6 days in the presence of 10 μg of the test peptide were harvested, washed and counted. CD8+ T cells were depleted from the cell suspension using anti-CD8+ antibody coupled with magnetic beads (Dynal, UK) as per the manufacturers instructions. Cells were then washed in PBS and resuspended at 5×10^5/ml in T cell medium. 100 μl of T cells was then added to all wells. Anti-DR antibody (L243) or isotype control were added to some wells to confirm the MHC specificity of the T-cell response. LPS-treated dendritic cells were harvested, washed and incubated in 1 ml of DC medium with the addition of 10 íg of peptide at 37° C. for 5 hours. After washing, 10^3 peptide-pulsed DC were added to the relevant wells of lymphocyte cultures in 50 íl media. […] Plates were harvested onto 96 Uni/Filter (Packard), the scintillation liquid (Microscint 0, Packard) was added and the plates were counted on a Top-Count counter (Packard). […]

Sequence | binding to HLA-A2 (T2 cells) (HLA-A2*0201) | IFN-γ or IL-50 (cytokine) production of splenocytes (IFN-γ [1]) | IFN-γ production by splenocytes (IFN-γ [2]) | effect of anti-HLA-DR antibody (L243) on proliferation (HLA-DRβ1*0401) | effect of anti-HLA-DR antibody (L243) on proliferation (HLA-DRβ1*0401; listed as PAP. 64) | proliferation of splenocytes from immunised HLA-DR4 mice (HLA-DRβ1*0401) | number of HLA-DR4 mice whose splenocytes demonstrated specific proliferation (HLA-DRβ1*0401) | number of HLA-DR4 mice whose splenocytes demonstrated specific proliferation (HLA-DRβ1*0401; listed as PAP. 64) | proliferative response of splenocytes from HLA-DR1 mice (HLA-DRβ1*0101) | number of HLA-DR1 mice whose splenocytes demonstrated specific proliferation (HLA-DRβ1*0101) | effect of anti-HLA-DR antibody (L243) on proliferation (HLA-DRβ1*0401; listed as PAP. 207) | number of HLA-DR4 mice whose splenocytes demonstrated specific proliferation (HLA-DRβ1*0401; listed as PAP. 207)
ALASCFCFFC (listed as Homo sapiens) [PAP.15] | no significant binding |  |  |  |  |  |  |  |  |  |  | 
IMYSAHDTTV (listed as Homo sapiens) [PAP.284] | Weak binding |  |  |  |  |  |  |  |  |  |  | 
PQGFGQLTQLGMEQH (listed as Homo sapiens) [PAP.64] |  | failed, with the exception of one out six experiments | not produced specifically | inhibited by the addition of L243 antibody | blocked in the presence of L243 antibody | Specific proliferation | 2/5 | 2 out of 5 | failed, with the exception of one out six experiments | 1/6 |  | 
SKVYDPLYSESVHNF (listed as Homo sapiens) [PAP.207] |  | failed, with the exception of one out six experiments | not produced specifically | inhibited by the addition of L243 antibody |  | Specific proliferation | 1/6 |  | failed, with the exception of one out six experiments | 0/5 | blocked in the presence of L243 antibody | 1 out of 6
VLAKELKFV (listed as Homo sapiens) [PAP.30, class-I PAP peptide already known in the art (Peshwa, 1998), reference compound] | strong binding; also recorded: moderate HLA-A2 binding |  |  |  |  |  |  |  |  |  |  | 
